In patent publication US9822147B2, “Methods of treating ophthalmic diseases using NPR-B agonists” (priority 2009, dated 2017) one finds EC50 data, which are given here for seven molecules.

SMILES strings stand for the structures. Numbered stars: 1 amine (or outer) side, 2 acyl side, 3 side chain; on linkers, the order of the positions; unused ones are H or OH. Square brackets hold non-standard residues; d marks the D form. Peptide text beside a SMILES is read from it. * marks the point of attachment. Pro(4R-NH2) = N[C@H]1CN[C@H](C(=O)O)C1; dLys(Me2) = CN(C)CCCC[C@@H](N)C(=O)O; dOrn(Me2) = CN(C)CCC[C@@H](N)C(=O)O; X2 = O=C([C@H]1CCCN([*:1])C1)[*:2]; X1 = CCCCCCCCN1CCC[C@H](C(=O)*)C1; dDap(Me2) = CN(C)C[C@@H](N)C(=O)O; Hyp = O=C(O)[C@@H]1C[C@@H](O)CN1; NHcycloheptyl = C1CCCC(N*)CC1; NMeL = CN[C@@H](CC(C)C)C(=O)O; Octanoyl = CCCCCCCC(=O)*

The assay concerns the target T1, NPR-B (Homo sapiens, UniProt P20594).
T1 construct: a functional assay using endogenously NPR-B expressing GTM-3 cells; endogenous in cells; host or cells: GTM-3 (human glaucoma trabecular meshwork cells)
T1 sequence (P20594 23-1047): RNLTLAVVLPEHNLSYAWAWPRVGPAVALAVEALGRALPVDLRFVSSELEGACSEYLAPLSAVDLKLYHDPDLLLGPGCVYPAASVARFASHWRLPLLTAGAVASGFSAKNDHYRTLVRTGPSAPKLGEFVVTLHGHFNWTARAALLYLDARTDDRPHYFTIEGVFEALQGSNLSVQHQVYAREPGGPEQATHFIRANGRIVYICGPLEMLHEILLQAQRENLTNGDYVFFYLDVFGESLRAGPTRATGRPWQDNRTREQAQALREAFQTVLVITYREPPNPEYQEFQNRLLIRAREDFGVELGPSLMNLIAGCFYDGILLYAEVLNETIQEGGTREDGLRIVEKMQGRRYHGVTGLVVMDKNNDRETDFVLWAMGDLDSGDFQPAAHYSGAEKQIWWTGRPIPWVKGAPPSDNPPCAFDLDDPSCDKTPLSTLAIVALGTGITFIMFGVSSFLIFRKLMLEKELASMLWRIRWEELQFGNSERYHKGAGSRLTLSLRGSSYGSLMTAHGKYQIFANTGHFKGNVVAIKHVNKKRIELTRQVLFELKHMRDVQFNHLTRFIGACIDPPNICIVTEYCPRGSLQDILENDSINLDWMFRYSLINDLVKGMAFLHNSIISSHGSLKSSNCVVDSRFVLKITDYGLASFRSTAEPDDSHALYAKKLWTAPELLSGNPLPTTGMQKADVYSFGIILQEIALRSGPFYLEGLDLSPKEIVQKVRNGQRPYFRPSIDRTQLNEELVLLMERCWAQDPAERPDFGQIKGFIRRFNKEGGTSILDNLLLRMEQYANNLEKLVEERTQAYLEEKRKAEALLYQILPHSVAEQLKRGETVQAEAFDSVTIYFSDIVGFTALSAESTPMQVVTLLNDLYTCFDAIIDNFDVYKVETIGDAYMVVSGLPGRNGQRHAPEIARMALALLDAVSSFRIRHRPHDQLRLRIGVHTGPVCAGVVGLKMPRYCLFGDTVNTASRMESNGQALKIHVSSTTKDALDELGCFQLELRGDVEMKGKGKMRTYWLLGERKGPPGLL
As to the kind of experiment: NPR-B induced production of cyclic GMP in human glaucoma trabecular meshwork cells (GTM-3). The settings on record: group by EC50 and Emax (CNP = 100%); Table 4; read-out: Activity (group), NPR-B activation assayed with GTM-3 cells. Format: cell-based.
In the case of `CCCCCCCCN1CCC[C@H](C(=O)N[C@@H](Cc2ccccc2)C(=O)N[C@H](CN(C)C)C(=O)N[C@@H](CC(C)C)C(=O)N2C[C@H](N)C[C@H]2C(=O)N(C)[C@@H](CC(C)C)C(=O)N[C@H](C(=O)N[C@@H](CCCNC(=N)N)C(=O)N[C@H](C(N)=O)[C@@H](C)CC)C(C)C)C1` [JAL-1405, Oct-Sni-Phe-dap(Me2)-Leu-Tap-Nml-Val-Arg-Ile-NH2] (X1-F[dDap(Me2)]L[Pro(4R-NH2)][NMeL]VRI-NH2), the EC50 was < 1 µM.
As for `CCCCCCCC(=O)N1CCC[C@H](C(=O)N[C@@H](Cc2ccccc2)C(=O)N[C@H](CC(C)C)C(=O)N[C@@H](CCCC)C(=O)N2C[C@H](O)C[C@H]2C(=O)N(C)[C@@H](CC(C)C)C(=O)N[C@@H](CC(=O)O)C(=O)N[C@@H](CCCNC(=N)N)C(=O)N[C@H](C(N)=O)[C@@H](C)CC)C1` [JAL-1624, Occ-Sni-Phe-leu-Nle-Hyp-Nml-Asp-Arg-Ile-NH2] (HELM PEPTIDE1{[CCCCCCCC(=O)[*:2]].[O=C([C@H]1CCCN([*:1])C1)[*:2]].F.[dL].[Nle].[Hyp].[meL].D.R.I.[am]}$$$$V2.0), the figure is < 1 µM.
As for `CCCCCCCC(=O)N[C@H](C)C(=O)N[C@@H](Cc1ccccc1)C(=O)N[C@H](CCCN)C(=O)N[C@@H](CC(C)C)C(=O)N1C[C@H](O)C[C@H]1C(=O)N(C)[C@@H](CC(C)C)C(=O)N[C@@H](CC(=O)O)C(=O)N[C@@H](CCCNC(=N)N)C(=O)N[C@H](C(N)=O)[C@@H](C)CC` [JAL-1061, Occ-ala-Phe-orn-Leu-Hyp-Nml-Asp-Arg-Ile-NH2] (HELM PEPTIDE1{[CCCCCCCC(=O)[*:2]].[dA].F.[NCCC[C@@H](N[*:1])C(=O)[*:2]].L.[Hyp].[meL].D.R.I.[am]}$$$$V2.0), the figure is < 1 µM.
As for `CCCCCCCC(=O)N1CCC[C@H](C(=O)N[C@@H](Cc2ccccc2)C(=O)N[C@H](CCCN(C)C)C(=O)N[C@@H](CC(C)C)C(=O)N2C[C@H](N)C[C@H]2C(=O)N(C)[C@@H](CC(C)C)C(=O)N[C@H](C(=O)N[C@@H](CCCNC(=N)N)C(=O)NC2CCCCCC2)C(C)C)C1` [JAL-1850, Occ-Sni-Phe-orn(Me2)-Leu-Tap-Nml-Val-Arg-Che] (Octanoyl-[X2]F[dOrn(Me2)]L[Pro(4R-NH2)][NMeL]VR-NHcycloheptyl), the figure is < 1 µM; as for `CCCCCCCC(=O)N1CCC[C@H](C(=O)N(C)[C@@H](Cc2ccccc2)C(=O)N[C@H](CC(C)C)C(=O)N[C@@H](CC(C)C)C(=O)N2C[C@H](O)C[C@H]2C(=O)N(C)[C@@H](CC(C)C)C(=O)N[C@@H](CC(=O)O)C(=O)N[C@@H](CCCNC(=N)N)C(=O)N[C@H](C(N)=O)[C@@H](C)CC)C1` [JAL-1573, Occ-Sni-Nmf-leu-Leu-Hyp-Nml-Asp-Arg-Ile-NH2] (HELM PEPTIDE1{[CCCCCCCC(=O)[*:2]].[O=C([C@H]1CCCN([*:1])C1)[*:2]].[meF].[dL].L.[Hyp].[meL].D.R.I.[am]}$$$$V2.0), < 1 µM; as for `CCCCCCCC(=O)N1CCC[C@H](C(=O)N[C@@H](Cc2ccccc2)C(=O)N[C@H](CCCCN(C)C)C(=O)N[C@@H](CC(C)C)C(=O)N2C[C@H](O)C[C@H]2C(=O)N(C)[C@@H](CC(C)C)C(=O)N[C@@H](CC(=O)O)C(=O)N[C@@H](CCCNC(=N)N)C(=O)NC2CCCCCC2)C1` [JAL-1777, Occ-Sni-Phe-lys(Me2)-Leu-Hyp-Nml-Asp-Arg-Che] (Octanoyl-[X2]F[dLys(Me2)]L[Hyp][NMeL]DR-NHcycloheptyl), < 1 µM.
Turning to `CCCCCCCC(=O)N[C@H](C)C(=O)N[C@@H](Cc1ccccc1)C(=O)N[C@H](CCCN(C)C)C(=O)N[C@@H](CC(C)C)C(=O)N1C[C@H](O)C[C@H]1C(=O)N(C)[C@@H](CC(C)C)C(=O)N[C@@H](CC(=O)O)C(=O)N[C@@H](CCCNC(=N)N)C(=O)N[C@H](C(N)=O)[C@@H](C)CC` [JAL-1288, Occ-ala-Phe-orn(Me2)-Leu-Hyp-Nml-Asp-Arg-Ile-NH2] (HELM PEPTIDE1{[CCCCCCCC(=O)[*:2]].[dA].F.[CN(C)CCC[C@@H](N[*:1])C(=O)[*:2]].L.[Hyp].[meL].D.R.I.[am]}$$$$V2.0), the EC50 is < 1 µM.
